{"source": "patent US11371013B2", "about": "“Culture medium composition and method of culturing cell or tissue using thereof” (Nissan Chemical Industries, Ltd., priority 2012, dated 2022)", "key": {"[1]": {"tested_on": "A431 cells", "experiment": "Effect of Gefitinib, Elrotinib on proliferation of A431 cells stimulated with human HB-EGF", "assay_type": "cell-based", "settings": "A431 cells stimulated with human HB-EGF, 0.015% (w/v) deacylated gellan gum medium, low adhesion plate", "protocol": "Each plate was cultured by being stood still in a CO2 incubator (37° C., 5% CO2). […] To the culture medium on days 4, 6 and 8 was added an ATP reagent (150 μL) (CellTiter-Glo (registered trade mark) Luminescent Cell Viability Assay, manufactured by Promega) to give a suspension, which was stood for about 10 min at room temperature, and the luminescence intensity (RLU value) was measured by FlexStation3 (manufactured by Molecular Devices), and the number of viable cells was measured by subtracting the luminescence value of the medium alone."}, "[2]": {"tested_on": "A549 cells", "experiment": "Effect of Gefitinib on cell proliferation of A549 cell stimulated with human HB-EGF", "assay_type": "cell-based", "settings": "DAG 0.015%, day 6", "protocol": "(§1) This aqueous solution was sterilized at 121° C. for 20 min in an autoclave.\nEach plate was cultured by being stood still in a CO2 incubator (37° C., 5% CO2). […] To the culture medium on day 6 was added an ATP reagent (150 μL) (CellTiter-Glo (registered trade mark) Luminescent Cell Viability Assay, manufactured by Promega) to give a suspension, which was stood for about 10 min at room temperature, and the luminescence intensity (RLU value) was measured by FlexStation3 (manufactured by Molecular Devices), and the number of viable cells was measured by subtracting the luminescence value of the medium alone."}, "[3]": {"tested_on": "HeLa cells", "experiment": "Cell proliferation test using various anticancer drugs", "assay_type": "cell-based, human", "settings": "DAG 0.030% medium; for cell density: HeLa cells 5 days later", "protocol": "This aqueous solution was sterilized at 121° C. for 20 min in an autoclave. […] The anticancer drug used was Adriamycin (manufactured by WAKO), Paclitaxel (manufactured by WAKO) or Mitomycin C (manufactured by WAKO).\nSuccessively, this plate was cultured by being stood still in a CO2 incubator (37° C., 5% CO2) for 7 days. After culturing for 3, 5, 7 days, to the culture medium was added a WST-8 solution (manufactured by DOJINDO Laboratories, 20 μL), and the mixture was incubated at 37° C. for 100 min. The absorbance at 450 nm was measured by an absorbance spectrometer (manufactured by Molecular Devices, SPECTRA MAX 190), and the number of viable cells was measured by subtracting the absorbance of the medium alone. The culture medium containing the cells after 5 days of culture was stirred with a pipette and the obtained stirred solution (20 μL) was mixed with Trypan Blue stain 0.4% (manufactured by Invitrogen, 20 μL) and the cell density was measured under a microscope."}, "[4]": {"tested_on": "HeLa cells", "experiment": "Comparison with single layer culture method in cell proliferation test using anticancer drug", "assay_type": "cell-based, human", "settings": "day 4", "protocol": "as §1\nEach plate was cultured by being stood still in a CO2 incubator (37° C., 5% CO2). […] The anticancer drug used was Adriamycin (manufactured by WAKO), Paclitaxel (manufactured by WAKO) or Mitomycin C (manufactured by WAKO). To the culture medium on day 4 was added an ATP reagent (150 μL) (CellTiter-Glo (registered trade mark) Luminescent Cell Viability Assay, manufactured by Promega) to give a suspension, which was stood for about 10 min at room temperature, and the luminescence intensity (RLU value) was measured by FlexStation3 (manufactured by Molecular Devices), and the number of viable cells was measured by subtracting the luminescence value of the medium alone. For WST-8 measurement, a WST-8 solution (manufactured by DOJINDO Laboratories, 15 μL) was added, the mixture was incubated at 37° C. for 100 min, the absorbance at 450 nm was measured by an absorbance spectrometer (manufactured by Molecular Devices, SPECTRA MAX 190), and the number of viable cells was measured by subtracting the absorbance of the medium alone."}, "[5]": {"settings": "0.005 μM, deacylated gellan gum addition group (0.015%)"}, "[6]": {"settings": "0.005 μM, single layer culture group"}, "[7]": {"settings": "0.05 μM, deacylated gellan gum addition group (0.015%)"}, "[8]": {"settings": "0.05 μM, single layer culture group"}, "[9]": {"settings": "0.5 μM, deacylated gellan gum addition group (0.015%)"}, "[10]": {"settings": "0.5 μM, single layer culture group"}}, "data": [{"smiles": "C#Cc1cccc(Nc2ncnc3cc(OCCOC)c(OCCOC)cc23)c1", "note": "[Elrotinib]", "values": [{"measurement": "% Control value of the RLU value (ATP measurement, luminescence intensity)", "setting": "[1]; drug 0.1 μM, day 4", "result": 88, "unit": "%"}, {"measurement": "% Control value of the RLU value (ATP measurement, luminescence intensity)", "setting": "[1]; drug 0.1 μM, day 8", "result": 56, "unit": "%"}, {"measurement": "% Control value of the RLU value (ATP measurement, luminescence intensity)", "setting": "[1]; drug 0.3 μM, day 4", "result": 89, "unit": "%"}, {"measurement": "% Control value of the RLU value (ATP measurement, luminescence intensity)", "setting": "[1]; drug 0.3 μM, day 8", "result": 27, "unit": "%"}, {"measurement": "% Control value of the RLU value (ATP measurement, luminescence intensity)", "setting": "[1]; drug 1 μM, day 4", "result": 21, "unit": "%"}, {"measurement": "% Control value of the RLU value (ATP measurement, luminescence intensity)", "setting": "[1]; drug 1 μM, day 8", "result": 4, "unit": "%"}, {"measurement": "% Control value of the RLU value (ATP measurement, luminescence intensity)", "setting": "[1]; drug 3 μM, day 4", "result": 4, "unit": "%"}, {"measurement": "% Control value of the RLU value (ATP measurement, luminescence intensity)", "setting": "[1]; drug 3 μM, day 8", "result": 0, "unit": "%"}]}, {"smiles": "COc1cc2ncnc(Nc3ccc(F)c(Cl)c3)c2cc1OCCCN1CCOCC1", "note": "[Gefitinib]", "values": [{"measurement": "% Control of RLU value (ATP)", "setting": "[2]; 0.1 μM, HB-EGF 100 ng/ml", "result": 91, "unit": "% Control"}, {"measurement": "% Control of RLU value (ATP)", "setting": "[2]; 0.1 μM, HB-EGF no addition", "result": 89, "unit": "% Control"}, {"measurement": "% Control of RLU value (ATP)", "setting": "[2]; 0.3 μM, HB-EGF 100 ng/ml", "result": 74, "unit": "% Control"}, {"measurement": "% Control of RLU value (ATP)", "setting": "[2]; 0.3 μM, HB-EGF no addition", "result": 84, "unit": "% Control"}, {"measurement": "% Control of RLU value (ATP)", "setting": "[2]; 1 μM, HB-EGF 100 ng/ml", "result": 59, "unit": "% Control"}, {"measurement": "% Control of RLU value (ATP)", "setting": "[2]; 1 μM, HB-EGF no addition", "result": 77, "unit": "% Control"}, {"measurement": "% Control of RLU value (ATP)", "setting": "[2]; 3 μM, HB-EGF 100 ng/ml", "result": 53, "unit": "% Control"}, {"measurement": "% Control of RLU value (ATP)", "setting": "[2]; 3 μM, HB-EGF no addition", "result": 69, "unit": "% Control"}]}, {"smiles": "CO[C@@]12[C@H](COC(N)=O)C3=C(C(=O)C(C)=C(N)C3=O)N1C[C@@H]1N[C@@H]12", "note": "[Mitomycin C]", "values": [{"measurement": "cell density", "setting": "[3]; 0.01 μM", "result": "1.0 10^4 cells/mL"}, {"measurement": "cell number (absorbance at 450 nm, WST-8)", "setting": "[3]; 0.01 μM, culture day 3", "result": 0.089}, {"measurement": "cell number (absorbance at 450 nm, WST-8)", "setting": "[3]; 0.01 μM, culture day 5", "result": 0.016}, {"measurement": "cell number (absorbance at 450 nm, WST-8)", "setting": "[3]; 0.01 μM, culture day 7", "result": "<0"}, {"measurement": "cell density", "setting": "[3]; 0.1 μM", "result": "0.4 10^4 cells/mL"}, {"measurement": "cell number (absorbance at 450 nm, WST-8)", "setting": "[3]; 0.1 μM, culture day 3", "result": 0.032}, {"measurement": "cell number (absorbance at 450 nm, WST-8)", "setting": "[3]; 0.1 μM, culture day 5", "result": "<0"}, {"measurement": "cell number (absorbance at 450 nm, WST-8)", "setting": "[3]; 0.1 μM, culture day 7", "result": "<0"}, {"measurement": "cell density", "setting": "[3]; 1 μM", "result": "0.1 10^4 cells/mL"}, {"measurement": "cell number (absorbance at 450 nm, WST-8)", "setting": "[3]; 1 μM, culture day 3", "result": "<0"}, {"measurement": "cell number (absorbance at 450 nm, WST-8)", "setting": "[3]; 1 μM, culture day 5", "result": "<0"}, {"measurement": "cell number (absorbance at 450 nm, WST-8)", "setting": "[3]; 1 μM, culture day 7", "result": "<0"}, {"measurement": "% Control of RLU value (ATP)", "setting": "[4]; [5]", "result": 83, "unit": "% Control"}, {"measurement": "% Control of absorbance at 450 nm (WST-8)", "setting": "[4]; [5]", "result": 94, "unit": "% Control"}, {"measurement": "% Control of RLU value (ATP)", "setting": "[4]; [6]", "result": 99, "unit": "% Control"}, {"measurement": "% Control of absorbance at 450 nm (WST-8)", "setting": "[4]; [6]", "result": 101, "unit": "% Control"}, {"measurement": "% Control of RLU value (ATP)", "setting": "[4]; [7]", "result": 48, "unit": "% Control"}, {"measurement": "% Control of absorbance at 450 nm (WST-8)", "setting": "[4]; [7]", "result": 37, "unit": "% Control"}, {"measurement": "% Control of RLU value (ATP)", "setting": "[4]; [8]", "result": 89, "unit": "% Control"}, {"measurement": "% Control of absorbance at 450 nm (WST-8)", "setting": "[4]; [8]", "result": 83, "unit": "% Control"}, {"measurement": "% Control of RLU value (ATP)", "setting": "[4]; [9]", "result": 29, "unit": "% Control"}, {"measurement": "% Control of absorbance at 450 nm (WST-8)", "setting": "[4]; [9]", "result": 12, "unit": "% Control"}, {"measurement": "% Control of RLU value (ATP)", "setting": "[4]; [10]", "result": 86, "unit": "% Control"}, {"measurement": "% Control of absorbance at 450 nm (WST-8)", "setting": "[4]; [10]", "result": 71, "unit": "% Control"}]}]}
